From patent US10493070B2 (priority 2016, dated 2019) come the findings set out here.

Molecules are shown by their SMILES. pEC50: −log10 of the molar value.

The subject of the first experiment is recombinant NL4-3 virus (NLRluc, Renilla luciferase in nef, Gag P373S). The experiment is described as follows: HIV cell culture assay (Renilla luciferase reporter virus in MT-2 cells). Type of experiment: cell-based. Particulars: Renilla, NL43, read-out: 10% FBS EC50, 10% FBS, class symbols A/B/C. In outline: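 MT-2 cells infected with NL4-3 reporter virus (Renilla luciferase replacing part of nef, Gag P373S), made by 293T transfection and titered in MT-2 cells by luciferase. Infection runs 4–5 days with serial inhibitor dilutions. Antiviral activity read as Renilla luciferase activity (Dual Luciferase reagents).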
Background: In a reporter assay the amount or activity of a reporter protein is the signal.
For `CCn1c(-c2ccccc2C(=O)N2CC=C3C(C)(C)C(c4ccc(C(=O)O)cc4)=CC[C@]3(C)C2)nc2cc(S(C)(=O)=O)ccc21` [Example A286], the pEC50 was under 5.52.

Regarding `CC1(C)C(c2ccc(C(=O)O)cc2)=CC[C@]2(C)CN(C(=O)c3ccccc3-c3nc4cc(C(=O)O)ccc4n3Cc3ccccc3)CC=C12` [Example A290], the pEC50 was under 5.52.

In the case of `CC1(C)C(c2ccc(C(=O)O)cc2)=CC[C@]2(C)CN(C(=O)c3ccccc3-c3nc4cc(C(=O)O)ccc4n3Cc3cccnc3)CC=C12` [Example A293], the pEC50 is under 5.52.

In the case of `CC(=O)NCCn1c(-c2ccccc2C(=O)N2CC=C3C(C)(C)C(c4ccc(C(=O)O)cc4)=CC[C@]3(C)C2)nc2cc(C(=O)O)ccc21` [Example A294], the pEC50 was under 5.52.

For the compound `COCCn1c(-c2ccccc2C(=O)N2CC=C3C(C)(C)C(c4ccc(C(=O)O)cc4)=CC[C@]3(C)C2)nc2cc(C(=O)O)ccc21` [Example A296], the pEC50 is under 5.52.

With `COc1ccc(OC)c2[nH]c(-c3ccccc3C(=O)N3CC=C4C(C)(C)C(c5ccc(C(=O)O)cc5)=CC[C@]4(C)C3)nc12` [Example A299], the pEC50 was over 6.30.

With `CC1(C)C(c2ccc(C(=O)O)cc2)=CC[C@]2(C)CN(C(=O)c3ccccc3-c3nc4ccc(F)c(F)c4o3)CC=C12` [Example A314], the pEC50 is 5.52 to 6.30.

For `CC1(C)C(c2ccc(C(=O)O)cc2)=CC[C@]2(C)CN(C(=O)c3ccccc3-c3nc4ccc(Cl)cc4o3)CC=C12` [Example A318], the pEC50 is over 6.30.

`CC1(C)C(c2ccc(C(=O)O)cc2)=CC[C@@]2(C)CN(C(=O)c3ccccc3-c3nc4c(ccc5ccccc54)o3)CC=C12` [Example A324]: the pEC50 was over 6.30.

As for `CC1(C)C(c2ccc(C(=O)O)cc2)=CC[C@]2(C)CN(C(=O)c3ccccc3-c3nc4cc(Cl)ccc4o3)CC=C12` [Example A332], the pEC50 is over 6.30.

Regarding `COc1ccc2nc(-c3ccccc3C(=O)N3CC=C4C(C)(C)C(c5ccc(C(=O)O)cc5)=CC[C@]4(C)C3)oc2c1` [Example A334], the pEC50 was over 6.30.

For the compound `CC1(C)C(c2ccc(C(=O)O)cc2)=CC[C@]2(C)CN(C(=O)c3ccccc3-c3nc4cc(F)c(F)cc4o3)CC=C12` [Example A338], the pEC50 is 5.52 to 6.30.

For `CC1(C)C(c2ccc(C(=O)O)cc2)=CC[C@]2(C)CN(c3cc(N)cc(-c4nnn(CCN5CCS(=O)(=O)CC5)n4)c3)CC=C12` [Example B3, (S)-4-(2-(3-amino-5-(2-(2-(1,1-dioxidothiomorpholino)ethyl)-2H-tetrazol-5-yl)phenyl)-5,5,8a-trimethyl-1,2,3,5,8,8a-hexahydroisoquinolin-6-yl)benzoic acid], the pEC50 is under 5.52.

Take `CC1(C)C(c2ccc(C(=O)O)cc2)=CC[C@]2(C)CN(c3ccc(-c4nnn(CCN5CCS(=O)(=O)CC5)n4)cc3)CC=C12` [Example B5]: the pEC50 is under 5.52.

Regarding `CC1(C)C(c2ccc(C(=O)O)cc2)=CC[C@]2(C)CN(c3cc(F)cc(-c4nn[nH]n4)c3)CC=C12` [Example B7], the pEC50 is under 5.52.

With `CC1(C)C(c2ccc(C(=O)O)cc2)=CC[C@]2(C)CN(c3cc(F)cc(-c4nnn(CCN5CCS(=O)(=O)CC5)n4)c3)CC=C12` [Example B8], the pEC50 was over 6.30.

As for `CC1(C)C(c2ccc(C(=O)O)cc2)=CC[C@]2(C)CN(c3ccc(C(=O)O)cc3)CC=C12` [Example B10, (S)-4,4′-(5,5,8a-trimethyl-3,5,8,8a-tetrahydroisoquinoline-2,6(1H)-diyl)dibenzoic acid], the pEC50 is under 5.52.

As to `CC1(C)C(c2ccc(C(=O)O)cc2)=CC[C@]2(C)CN(c3ncccn3)CC=C12` [Example B11], the pEC50 was under 5.52.

`CC1(C)C(c2ccc(C(=O)O)cc2)=CC[C@]2(C)CN(c3ncc(C(=O)O)s3)CC=C12` [Example B12]: the pEC50 was under 5.52.

Turning to `CCOC(=O)c1cnc(N2CC=C3C(C)(C)C(c4ccc(C(=O)O)cc4)=CC[C@]3(C)C2)s1` [Example B14], the pEC50 is 5.52 to 6.30.

In the case of `CC1(C)C(c2ccc(C(=O)O)cc2)=CC[C@]2(C)CN(c3cc(C(=O)O)cc([N+](=O)[O-])c3)CC=C12` [Example B15], the pEC50 is under 5.52.

As for `CC1(C)C(c2ccc(C(=O)O)cc2)=CC[C@]2(C)CN(c3ccc(C(N)=O)cc3)CC=C12` [Example B17], the pEC50 was under 5.52.

Regarding `CC1(C)C(c2ccc(C(=O)O)cc2)=CC[C@]2(C)CN(C(=O)C(=O)N3CCC[C@H]3C(=O)NCCN3CCS(=O)(=O)CC3)CC[C@@H]12` [Example C1, 4-((4aS,8aS)-2-(2-((S)-2-((2-(1,1-dioxidothiomorpholino)ethyl)carbamoyl)pyrrolidin-1-yl)-2-oxoacetyl)-5,5,8a-trimethyl-1,2,3,4,4a,5,8,8a-octahydroisoquinolin-6-yl)benzoic acid], the pEC50 is under 5.52.

`CC1(C)C(c2ccc(C(=O)O)cc2)=CC[C@]2(C)CN(C(=O)C(=O)N3CCC[C@H]3C(=O)NCCCN3CCS(=O)(=O)CC3)CC[C@@H]12` [Example C2, 4-((4aS,8aS)-2-(2-((S)-2-((3-(1,1-dioxidothiomorpholino)propyl)carbamoyl)pyrrolidin-1-yl)-2-oxoacetyl)-5,5,8a-trimethyl-1,2,3,4,4a,5,8,8a-octahydroisoquinolin-6-yl)benzoic acid]: the pEC50 was under 5.52.

Still in this experiment, the particulars now being: Renilla, NL43, read-out: 10% FBS EC50, 10% FBS, numeric values.
As for `CC1(C)C(c2ccc(C(=O)O)cc2)=CC[C@]2(C)CN(C(=O)c3ccccc3-c3nc4cc(Cl)c(Cl)cc4n3CCc3ccccc3)CC=C12` [Example A277], the pEC50 is 5.65.

On to `Cc1ncc(C)n2nc(-c3ccc4c(c3)nc(-c3ccccc3C(=O)N3CC=C5C(C)(C)C(c6ccc(C(=O)O)cc6)=CC[C@]5(C)C3)n4C)nc12` [Example A278], for which the pEC50 is 5.30.

Regarding `CC1(C)C(c2ccc(C(=O)O)cc2)=CC[C@]2(C)CN(C(=O)c3ccccc3-c3nc4ccccc4n3-c3ccccc3)CC=C12` [Example A279], the pEC50 is 6.41.

On to `CC1(C)C(c2ccc(C(=O)O)cc2)=CC[C@]2(C)CN(C(=O)c3ccccc3-c3nc4ccccc4n3C3CCN(Cc4ccccc4)CC3)CC=C12` [Example A280], for which the pEC50 is 6.26.

Regarding `CC1(C)C(c2ccc(C(=O)O)cc2)=CC[C@]2(C)CN(C(=O)c3ccccc3-c3nc4cc(C(=O)c5ccccc5)ccc4[nH]3)CC=C12` [Example A281], the pEC50 is 6.02.

As for `CC(C)(C)OC(=O)NCCn1c(-c2ccccc2C(=O)N2CC=C3C(C)(C)C(c4ccc(C(=O)O)cc4)=CC[C@]3(C)C2)nc2cc(C(F)(F)F)ccc21` [Example A283], the pEC50 was 5.86.

As for `CC1(C)C(c2ccc(C(=O)O)cc2)=CC[C@]2(C)CN(C(=O)c3ccccc3-c3nc4cc5c(cc4[nH]3)OCO5)CC=C12` [Example A298], the pEC50 was 7.22.

With `Cc1ccc2oc(-c3ccccc3C(=O)N3CC=C4C(C)(C)C(c5ccc(C(=O)O)cc5)=CC[C@]4(C)C3)nc2c1` [Example A309], the pEC50 is 6.77.

Turning to `COc1cccc2oc(-c3ccccc3C(=O)N3CC=C4C(C)(C)C(c5ccc(C(=O)O)cc5)=CC[C@]4(C)C3)nc12` [Example A311], the pEC50 was 6.66.

With `CC1(C)C(c2ccc(C(=O)O)cc2)=CC[C@]2(C)CN(C(=O)c3ccccc3-c3nc4cc(Br)ccc4o3)CC=C12` [Example A315], the pEC50 is 6.90.

Take `COc1ccc2oc(-c3ccccc3C(=O)N3CC=C4C(C)(C)C(c5ccc(C(=O)O)cc5)=CC[C@]4(C)C3)nc2c1` [Example A320]: the pEC50 is 6.74.

In the case of `CC1(C)C(c2ccc(C(=O)O)cc2)=CC[C@]2(C)CN(C(=O)c3ccccc3-c3nc4ccccc4o3)CC=C12` [Example A325], the pEC50 was 6.63.

For `Cc1ccc2nc(-c3ccccc3C(=O)N3CC=C4C(C)(C)C(c5ccc(C(=O)O)cc5)=CC[C@]4(C)C3)oc2c1` [Example A326], the pEC50 is 6.59.

Take `CC1(C)C(c2ccc(C(=O)O)cc2)=CC[C@]2(C)CN(c3cc(-c4nnn(CCN5CCS(=O)(=O)CC5)n4)cc([N+](=O)[O-])c3)CC=C12` [Example B1, (S)-4-(2-(3-(2-(2-(1,1-dioxidothiomorpholino)ethyl)-2H-tetrazol-5-yl)-5-nitrophenyl)-5,5,8a-trimethyl-1,2,3,5,8,8a-hexahydroisoquinolin-6-yl)benzoic acid]: the pEC50 is 7.62.

Consider `CC1(C)C(c2ccc(C(=O)O)cc2)=CC[C@]2(C)CN(c3cc(-c4nnnn4CCN4CCS(=O)(=O)CC4)cc([N+](=O)[O-])c3)CC=C12` [Example B2, (S)-4-(2-(3-(1-(2-(1,1-dioxidothiomorpholino)ethyl)-1H-tetrazol-5-yl)-5-nitrophenyl)-5,5,8a-trimethyl-1,2,3,5,8,8a-hexahydroisoquinolin-6-yl)benzoic acid], for which the pEC50 was 6.12.

For the compound `CC1(C)C(c2ccc(C(=O)O)cc2)=CC[C@]2(C)CN(c3cc(NC(=O)CCN4CCS(=O)(=O)CC4)cc(-c4nnn(CCN5CCS(=O)(=O)CC5)n4)c3)CC=C12` [Example B4, (S)-4-(2-(3-(2-(2-(1,1-dioxidothiomorpholino)ethyl)-2H-tetrazol-5-yl)-5-(3-(1,1-dioxidothiomorpholino)propanamido)phenyl)-5,5,8a-trimethyl-1,2,3,5,8,8a-hexahydroisoquinolin-6-yl)benzoic acid], the pEC50 was 5.77.

As to `CC1(C)C(c2ccc(C(=O)O)cc2)=CC[C@]2(C)CN(c3ccccc3-c3nnn(CCN4CCS(=O)(=O)CC4)n3)CC=C12` [Example B6], the pEC50 was 7.35.

As to `CC1(C)C(c2ccc(C(=O)O)cc2)=CC[C@]2(C)CN(c3cc(O)cc(-c4nnn(CCN5CCS(=O)(=O)CC5)n4)c3)CC=C12` [Example B9], the pEC50 is 5.93.

Turning to `COc1ccnc(N2CC=C3C(C)(C)C(c4ccc(C(=O)O)cc4)=CC[C@]3(C)C2)n1` [Example B13], the pEC50 was 5.57.

Regarding `CC1(C)C(c2ccc(C(=O)O)cc2)=CC[C@]2(C)CN(c3nc(C(=O)O)cs3)CC=C12` [Example B16], the pEC50 was 5.83.
